Laboratory results reported in patent US10875851B2, “Factor XIIa inhibitors” (Merck Sharp & Dohme Corp., priority 2016, dated 2020).

Biological target: human Factor XIIa (Homo sapiens (Human), UniProt P00748)
Assay: Factor XIIa Assay
Assay type: biochemical
Conditions: purified human Factor XIIa 500 pM; substrate n-Acetyl-Lys-Pro-Arg-AFC 100 μM; pH 7.4; read-out: FXIIa IC50
Experimental: The effectiveness of a compound of the present invention as an inhibitor of Coagulation Factor XIIa can be determined using a relevant purified serine protease, and an appropriate synthetic substrate. The rate of hydrolysis of the chromogenic or fluorogenic substrate by the relevant serine protease was measured both in the absence and presence of compounds of the present invention. Assays were conducted at room temperature or at 37° C. […] A decrease in the rate of fluorescence change in the presence of inhibitor is indicative of enzyme inhibition. Such methods are known to one skilled in the art.
Factor XIIa activity determinations were made in 50 mM HEPES buffer containing 150 mM NaCl, 5 mM CaCl2, and 0.1% PEG 8000 (polyethylene glycol; JT Baker or Fisher Scientific) at pH 7.4. Determinations were made using purified human Factor XIIa at a final concentration of 500 pM (Sekisui Diagnostics) and the synthetic substrate, n-Acetyl-Lys-Pro-Arg-AFC, TFA salt (Sigma #C6608) at a concentration of 100 μM.
Times required to achieve equilibration between enzyme and inhibitor were determined in control experiments. Initial velocities of product formation in the absence (Vo) or presence of inhibitor (Vi) were measured. IC50 was determined as the concentration of I yielding Vi=Vo/2.

human Factor XIIa, sequence (P00748 373-615): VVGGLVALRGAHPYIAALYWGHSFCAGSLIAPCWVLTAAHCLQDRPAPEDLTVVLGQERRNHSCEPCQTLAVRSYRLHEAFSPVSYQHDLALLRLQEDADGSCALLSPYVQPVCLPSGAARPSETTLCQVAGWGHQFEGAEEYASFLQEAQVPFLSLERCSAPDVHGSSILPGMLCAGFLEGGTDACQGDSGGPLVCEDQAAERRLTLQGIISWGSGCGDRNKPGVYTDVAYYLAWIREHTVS

SMILES	IC50 [nM]
C[C@@H]1N=C(N2CCN(C(=O)[C@@H](CCCCNS(C)(=O)=O)NC3CCCCC3)[C@H](C(=O)NCc3cccs3)C2)O[C@H]1c1ccccc1C#N [Example 127, (2S)-4-[(4S,5S)-5-(2-cyanophenyl)-4-methyl-4,5-dihydro-1,3-oxazol-2-yl]-1-[N^2-cyclohexyl-N^6-(methylsulfonyl)-D-lysyl]-N-(thiophen-2-ylmethyl)piperazine-2-carboxamide]	18.7
COc1cc(CNC(=O)[C@@H]2CN(C(=O)Oc3ccc4ccccc4c3Cl)CCN2C(=O)[C@@H](CC2CCCCC2)NC2CCCCC2)ccc1CN [Example 44, 1-chloronaphthalen-2-yl (3S)-3-{[4-(aminomethyl)-3-methoxybenzyl]carbamoyl}-4-(N,3-dicyclohexyl-D-alanyl)piperazine-1-carboxylate]	2.7
C[C@H]1N=C(N2CCN(C(=O)[C@@H](CCCCNS(C)(=O)=O)NC3CCCCC3)[C@H](C(=O)NCc3cccs3)C2)O[C@H]1c1ccccc1 [Example 122, (2S)-1-[N^2-cyclohexyl-N^6-(methylsulfonyl)-D-lysyl]-4-[(4R,5S)-4-methyl-5-phenyl-4,5-dihydro-1,3-oxazol-2-yl]-N-(thiophen-2-ylmethyl)piperazine-2-carboxamide]	13.5
CC(C)(C)C(=O)N1CCC([C@@H](NC2CCCCC2)C(=O)N2CCN(C(=O)Oc3ccccc3Cl)C[C@H]2C(=O)NCc2cccs2)CC1 [Example 69, 2-chlorophenyl (3S)-4-{(2R)-2-(cyclohexylamino)-2-[1-(2,2-dimethylpropanoyl)piperidin-4-yl]acetyl}-3-[(thiophen-2-ylmethyl)carbamoyl]piperazine-1-carboxylate]	8.4
C[C@@H]1N=C(N2CCN(C(=O)[C@H](N)CCCCN3CCCCC3)[C@H](C(=O)NCc3cc4cnccc4s3)C2)O[C@H]1c1ccccc1 [Example 163, (2S)-4-[(4S,5S)-4-methyl-5-phenyl-4,5-dihydro-1,3-oxazol-2-yl]-1-(6-piperidin-1-yl-D-norleucyl)-N-(thieno[3,2-c]pyridin-2-ylmethyl)piperazine-2-carboxamide]	15
NCc1ccc(OC(=O)N2CCN(C(=O)[C@@H](CC3CCCCC3)NC3CCCCC3)[C@H](C(=O)NCc3cccs3)C2)c(Cl)c1 [Example 21, 4-(aminomethyl)-2-chlorophenyl (3S)-4-(N,3-dicyclohexyl-D-alanyl)-3-[(thiophen-2-ylmethyl)carbamoyl]piperazine-1-carboxylate]	6.7
COc1cc(CNC(=O)[C@@H]2CN(C(=O)Oc3cccc4ccccc34)CCN2C(=O)[C@@H](CC2CCCCC2)NC2CCCCC2)ccc1CN [Example 24, naphthalen-1-yl (3S)-3-{[4-(aminomethyl)-3-methoxybenzyl]carbamoyl}-4-(N,3-dicyclohexyl-D-alanyl)piperazine-1-carboxylate]	1.6
C[C@@H]1N=C(N2CCN(C(=O)[C@H](N)CCCCN3CCCCC3)[C@H](C(=O)NCc3ccc4[nH]cc(Cl)c4c3)C2)O[C@H]1c1ccccc1 [Example 162, (2S)-N-[(3-chloro-1H-indol-5-yl)methyl]-4-[(4S,5S)-4-methyl-5-phenyl-4,5-dihydro-1,3-oxazol-2-yl]-1-(6-piperidin-1-yl-D-norleucyl)piperazine-2-carboxamide]	8.4
C[C@@H]1N=C(N2CCN(C(=O)[C@@H](CCCCN(C)C)NC3CCCCC3)[C@H](C(=O)NCc3cccs3)C2)O[C@H]1c1cccc(C#N)c1 [Example 138, (2S)-4[(4S,5S)-5-(3-cyanophenyl)-4-methyl-4,5-dihydro-1,3-oxazol-2-yl]-1-(N^2-cyclohexyl-N^6,N^6-dimethyl-D-lysyl)-N-(thiophen-2-ylmethyl)piperazine-2-carboxamide]	1.4
NCc1ccc(CNC(=O)[C@@H]2CN(C(=O)Oc3ccccc3Cl)CCN2C(=O)[C@@H](CC2CCCCC2)NC2CCCCC2)cc1 [Example 5, 2-chlorophenyl (3S)-3-{[4-(aminomethyl)benzyl]carbamoyl}-4-(N,3-dicyclohexyl-D-alanyl)piperazine-1-carboxylate]	5.9
CC1(C)N=C(N2CCN(C(=O)[C@@H](CC3CCCCC3)NC3CCCCC3)[C@H](C(=O)NCc3cccs3)C2)OC1c1ccccc1 (stereo partly drawn) [Example 137, (2S)-1-(N,3-dicyclohexyl-D-alanyl)-4-(4,4-dimethyl-5-phenyl-4,5-dihydro-1,3-oxazol-2-yl)-N-(thiophen-2-ylmethyl)piperazine-2-carboxamide]	23.2
COc1cc(CNC(=O)[C@@H]2CN(C(=O)Oc3ccc4ccccc4c3Cl)CCN2C(=O)[C@@H](CCCCN(C)C)NC2CCC(CN)CC2)ccc1CN (stereo partly drawn) [Example 92, 1-chloronaphthalen-2-yl (3S)-4-{N^2-[4-(aminomethyl)cyclohexyl]-N^6,N^6-dimethyl-D-lysyl}-3-{[4-(aminomethyl)-3-methoxybenzyl]carbamoyl}piperazine-1-carboxylate]	2.9
C[C@H]1N=C(N2CCN(C(=O)[C@@H](CCCCN(C)C)NC3CCC4(CC3)CCN(Cc3ccccc3)C4)[C@H](C(=O)NCc3cccs3)C2)O[C@@H]1c1ccccc1 (stereo partly drawn) [Example 143, (2S)-1[N^2-(2-benzyl-2-azaspiro[4.5]dec-8-yl)-N^6,N^6-dimethyl-D-lysyl]-4-[(4R,5R)-4-methyl-5-phenyl-4,5-dihydro-1,3-oxazol-2-yl]-N-(thiophen-2-ylmethyl)piperazine-2-carboxamide]	9.4

Continued by falling IC50, values first:

IC50 [nM]	SMILES
34.9	CN(C)CCCC[C@H](C(=O)N1CCN(C2=NC(C)(C)C(c3ccccc3)O2)C[C@H]1C(=O)NCc1ccc(CN)c(Cl)c1)N(C)C (stereo partly drawn) [Example 149, (2S)-N-[4-(aminomethyl)-3-chlorobenzyl]-4-(4,4-dimethyl-5-phenyl-4,5-dihydro-1,3-oxazol-2-yl)-1-(N^2,N^2,N^6,N^6-tetramethyl-D-lysyl)piperazine-2-carboxamide]
34.2	C[C@@H]1N=C(N2CCN(C(=O)[C@@H](CCCCNS(C)(=O)=O)NC3CCCCC3)[C@H](C(=O)NCc3cccs3)C2)O[C@@H]1c1ccccc1 [Example 152, (2S)-1-[N^2-cyclohexyl-N^6-(methylsulfonyl)-D-lysyl]-4-[(4S,5R)-4-methyl-5-phenyl-4,5-dihydro-1,3-oxazol-2-yl]-N-(thiophen-2-ylmethyl)piperazine-2-carboxamide]
29.7	CN(C)CCCC[C@@H](NC1CCCCC1)C(=O)N1CCN(C(=O)CC2CCCC2)C[C@H]1C(=O)NCc1cccs1 [Example 99, (2S)-1-(N^2-cyclohexyl-N^6,N^6-dimethyl-D-lysyl)-4-(cyclopentylacetyl)-N-(thiophen-2-ylmethyl)piperazine-2-carboxamide]
24.6	C[C@@H]1N=C(N2CCN(C(=O)[C@@H](CCCCNS(C)(=O)=O)NC3CCCCC3)[C@H](C(=O)NCc3cccs3)C2)O[C@H]1c1cccc(Br)c1 [Example 124, (2S)-4-[(4S,5S)-5-(3-bromophenyl)-4-methyl-4,5-dihydro-1,3-oxazol-2-yl]-1-[N^2-cyclohexyl-N^6-(methylsulfonyl)-D-lysyl]-N-(thiophen-2-ylmethyl)piperazine-2-carboxamide]
23.5	CN(C)CCCC[C@@H](NC1CCC2(CC1)CCN(Cc1ccccc1)C2)C(=O)N1CCN(C(=O)CC2CCCC2)C[C@H]1C(=O)NCc1cccs1 (stereo partly drawn) [Example 93, (2S)-1-[N^2-(2-benzyl-2-azaspiro[4.5]dec-8-yl)-N^6,N^6-dimethyl-D-lysyl]-4-(cyclopentylacetyl)-N-(thiophen-2-ylmethyl)piperazine-2-carboxamide]
22.8	C[C@@H]1N=C(N2CCN(C(=O)[C@H](N)CCCCN3CCCCC3)[C@H](C(=O)NCc3cccs3)C2)O[C@H]1c1ccccc1 [Example 164, (2S)-4-[(4S,5S)-4-methyl-5-phenyl-4,5-dihydro-1,3-oxazol-2-yl]-1-(6-piperidin-1-yl-D-norleucyl)-N-(thiophen-2-ylmethyl)piperazine-2-carboxamide]
7.4	COc1cc(CNC(=O)[C@@H]2CN(C3=NC(C)(C)[C@H](c4ccccc4)O3)CCN2C(=O)[C@@H](CCCCN(C)C)N(C)C)ccc1CN [Example 153, (2S)-N-[4-(aminomethyl)-3-methoxybenzyl]-4-[(5S)-4,4-dimethyl-5-phenyl-4,5-dihydro-1,3-oxazol-2-yl]-1-(N^2,N^2,N^6,N^6-tetramethyl-D-lysyl)piperazine-2-carboxamide]
6.6	CC(C)N[C@H](CCCCN1CCCCC1)C(=O)N1CCN(C2=N[C@@H](C)[C@H](c3ccccc3)O2)C[C@H]1C(=O)NCc1cccc(Cl)c1 [Example 175, (2S)-N-(3-chlorobenzyl)-1-[N-(1-methylethyl)-6-piperidin-1-yl-D-norleucyl]-4-[(4S,5S)-4-methyl-5-phenyl-4,5-dihydro-1,3-oxazol-2-yl]piperazine-2-carboxamide]
0.4	C[C@@H]1N=C(N2CCN(C(=O)[C@@H](CCCCN(C)C)NC3CCC4(CC3)CCN(Cc3ccccc3)C4)[C@H](C(=O)NCc3cccs3)C2)O[C@H]1c1ccccc1 (stereo partly drawn) [Example 142, (2S)-1-[N^2-(2-benzyl-2-azaspiro[4.5]dec-8-yl)-N^6,N^6-dimethyl-D-lysyl]-4-[(4S,5S)-4-methyl-5-phenyl-4,5-dihydro-1,3-oxazol-2-yl]-N-(thiophen-2-ylmethyl)piperazine-2-carboxamide]
